Data set [1] is described as follows: Selectivity index, ratio of HC50 for human erythrocytes to MIC for methicillin-resistant Staphylococcus aureus ATCC 33592. The format is toxicity. The settings on record: read-out: Selectivity Index.
A further data set concerns Bacillus subtilis. Briefly: Induction of morphological changes in Bacillus subtilis 168 assessed as cell length at 2 ug/ml after 4.5 hrs by phase contrast microscopic analysis (reference value: 5 to 10 micrometer). The format is functional, subsp. subtilis str. 168.
The target of data set [2] is T1, Cell division protein FtsZ (Staphylococcus aureus) (UniProt P0A031).
T1 sequence (whole entry): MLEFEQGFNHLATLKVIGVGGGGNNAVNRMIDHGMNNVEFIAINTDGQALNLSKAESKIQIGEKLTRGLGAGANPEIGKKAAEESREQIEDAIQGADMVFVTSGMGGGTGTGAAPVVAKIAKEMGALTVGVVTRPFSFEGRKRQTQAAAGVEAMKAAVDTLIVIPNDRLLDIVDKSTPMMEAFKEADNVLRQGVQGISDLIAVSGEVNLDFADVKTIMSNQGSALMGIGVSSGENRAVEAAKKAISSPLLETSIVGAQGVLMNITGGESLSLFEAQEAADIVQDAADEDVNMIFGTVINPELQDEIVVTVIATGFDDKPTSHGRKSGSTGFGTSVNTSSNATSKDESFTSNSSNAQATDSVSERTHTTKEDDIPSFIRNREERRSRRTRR
Briefly: Inhibition of recombinant Staphylococcus aureus FtsZ polymerization by 90 degree light scattering-based fluorescence spectrometric analysis.

The nature of data set [3]: Selectivity index, ratio of HC50 for human erythrocytes to MIC for methicillin-resistant Staphylococcus aureus ATCC BAA41. In kind it is toxicity. The settings on record: read-out: Selectivity Index.
The target of data set [4] is T1, Cell division protein FtsZ (Staphylococcus aureus). Kind of data set: Inhibition of recombinant Staphylococcus aureus FtsZ polymerization assessed as reduction in bundling of protein protofilaments at 4 ug/ml preincubated for 10 mins followed by GTP addition and measured after 15 mins by transmission electron microscopic method.
Data set [5] shares this target. Briefly: Inhibition of recombinant Staphylococcus aureus FtsZ GTPase activity assessed as reduction in inorganic phosphate formation at 16 ug/ml after 30 mins by colorimetric method relative to control.
Data set [6] is described as follows: Selectivity index, ratio of HC50 for human erythrocytes to MIC for methicillin-resistant Staphylococcus aureus ATCC BAA1720. In kind it is toxicity. The settings on record: read-out: Selectivity Index.
Data set [7] deals with T1, Cell division protein FtsZ (Staphylococcus aureus). Briefly: Inhibition of recombinant Staphylococcus aureus FtsZ polymerization assessed as reduction in size of protein polymers at 4 ug/ml preincubated for 10 mins followed by GTP addition and measured after 15 mins by transmission electron microscopic method.
In data set [8] the test system is Staphylococcus aureus. Briefly: Antibacterial activity against Staphylococcus aureus ATCC 29213 after 10 passages by broth microdilution method. In kind it is functional, organism-based.
The subject of data set [9] is Staphylococcus aureus. Briefly: Ratio of MIC for Staphylococcus aureus ATCC 29213 after and before 11 to 21 serial passages. In kind it is functional.
Data set [10] addresses T1, Cell division protein FtsZ (Staphylococcus aureus). Kind of data set: Inhibition of recombinant Staphylococcus aureus FtsZ GTPase activity assessed as reduction in inorganic phosphate formation at 2 ug/ml after 30 mins by colorimetric method relative to control.
A short description of data set [11]: Hemolytic activity against human erythrocytes measured after 1 hr. The format is ADME, cell-based, Erythrocyte.
Data set [12] deals with Staphylococcus aureus. Briefly: Ratio of MIC for Staphylococcus aureus ATCC 29213 after and before 5 serial passages. The format is functional.
The subject of data set [13] is Staphylococcus aureus. Briefly: Ratio of MIC for Staphylococcus aureus ATCC 29213 after and before 5 to 21 serial passages. The format is functional.

The record followed here is ChEMBL document CHEMBL4325853, “Design, synthesis and antibacterial evaluation of 2,4-disubstituted-6-thiophenyl-pyrimidines” (Eur J Med Chem, 2019).

Activity calls are given as the source filed them. The calls are words filed in the database; no cut-off is given here.

A word on the inhibition: it is the relative decrease from the control value, in per cent. A word on the HC50: it is the concentration giving 50% haemolysis. A higher HC50 goes with less damage to red cells. On to `CC(C)c1ccc(CN2CCCN(CCc3cc(-c4cccs4)nc(-c4ccncc4)n3)CC2)cc1`, for which the selectivity ratio in data set [1], in data set [3] and in [6] was > 32 each time. Also, the Activity in the data set on Bacillus subtilis is >20 um. The inhibition entry in [2] was “Dose-dependent effect”; in data set [5] it was 70%; in [10], 25%. In addition, the inhibition result in [4] and in data set [7] was “Active” each time. In addition, the outcome in the data set on Staphylococcus aureus [8] was Active. In addition, the Ratio in the data set on Staphylococcus aureus [9] was determined as 1. Moreover, in data set [11], the HC50 at 1 h was > 64 µg/mL.
On to `CC(C)(C)c1ccc(CN2CCCN(CCc3cc(-c4cccs4)nc(-c4ccncc4)n3)CC2)cc1`, for which the selectivity ratio in data set [1], in [3] and in [6] was > 32 in each case. Besides, the outcome in the data set on Staphylococcus aureus [8] and in the data set with Staphylococcus aureus [9] was Active. Besides, in data set [11], the HC50 at 1 h is > 64 µg/mL.
With `COc1cccc(OC)c1C(=O)N[C@@H]1C(=O)N2[C@@H]1SC(C)(C)[C@@H]2C(=O)O` [METHICILLIN], the Ratio in the data set with Staphylococcus aureus [12] worked out at 4; in the data set on Staphylococcus aureus [13], 32.
